According to patent US20230373985A1 (Origenis Gmbh, priority 2020, published 2023):

Experiments:
[1] = target: T1, G2019S human LRRK2, catalytic site (Homo sapiens, UniProt Q5S007, G2019S); assay: TR-FRET LanthaScreen Eu Kinase Binding Assay, LRRK2 G2019S; conditions: LRRK2(G2019); one range stated for wt and G2019; read-out: IC50, Activity Toward LRRK2(G2019)
T1 construct: G2019S human LRRK2, catalytic site; purchased ThermoFisher
Description: (§1) The basic protocol for TR-FRET LanthaScreen Eu Kinase Binding Assay inhibitor studies were performed as follows. LanthaScreen Kinase Binding Assays (ThermoFisher/USA) to evaluate inhibitors were performed by addition of 5 μL of test compound in corresponding DMSO dilutions/5 μl of kinase/antibody mixture, 5 μL of tracer into 384 well small volume plates. After incubation for 1 hour at room temperature, plates were read. Data analysis of emission ratios was according LanthaScreen Eu Kinase Binding Assay protocol.
(§2) Kinase and assay components were adjusted to final concentrations according to kit protocol. For LRRK2: 5 nM wt human LRRK2, catalytic site, or G2019S human LRRK2, catalytic site (ThermoFisher/USA), 2 nM Eu-Anti-GST Antibody, 10 nM Kinase Tracer 236 in 1× Kinase Buffer A. For NUAK1: 8 nM wt human NUAK1, full length (ThermoFisher/USA), 2 nM Eu-Anti-His Antibody, 5 nM Kinase Tracer 236 in 1× Kinase Buffer A.

[2] = target: T2, wt human JAK1, catalytic site (Homo sapiens, UniProt P23458); assay: HTRF KinEASE assay, JAK1; format: biochemical; conditions: 2.5 μM ATP; read-out: IC50, Activity Toward JAK1
T2 construct: wt human JAK1, catalytic site; purchased ThermoFisher
T2 sequence (P23458 875-1153 limits assumed): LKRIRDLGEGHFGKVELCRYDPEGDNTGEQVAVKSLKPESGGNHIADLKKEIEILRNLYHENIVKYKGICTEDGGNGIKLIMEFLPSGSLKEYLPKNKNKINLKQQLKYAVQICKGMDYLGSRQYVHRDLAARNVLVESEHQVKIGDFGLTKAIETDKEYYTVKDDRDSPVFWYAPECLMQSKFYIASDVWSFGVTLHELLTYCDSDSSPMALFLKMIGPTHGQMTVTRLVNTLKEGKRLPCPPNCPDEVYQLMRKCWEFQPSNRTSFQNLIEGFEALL
Procedure, shortened: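 Compounds in DMSO dilution were mixed with kinase, biotin-TK substrate and ATP and reacted for ≥30 min at room temperature. Detection reagents (antibody, streptavidin-XL665) were read 60 min later as HTRF, with emission ratios analysed per KinEASE protocol.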

[3] = target: T3, wt human TYK2, catalytic site (Homo sapiens, UniProt P29597); assay: HTRF KinEASE assay, TYK2; format: biochemical; conditions: 1 μM ATP; read-out: IC50, Activity Toward TYK2
T3 construct: wt human TYK2, catalytic site; purchased SignalChem
T3 sequence (P29597 897-1176 limits assumed): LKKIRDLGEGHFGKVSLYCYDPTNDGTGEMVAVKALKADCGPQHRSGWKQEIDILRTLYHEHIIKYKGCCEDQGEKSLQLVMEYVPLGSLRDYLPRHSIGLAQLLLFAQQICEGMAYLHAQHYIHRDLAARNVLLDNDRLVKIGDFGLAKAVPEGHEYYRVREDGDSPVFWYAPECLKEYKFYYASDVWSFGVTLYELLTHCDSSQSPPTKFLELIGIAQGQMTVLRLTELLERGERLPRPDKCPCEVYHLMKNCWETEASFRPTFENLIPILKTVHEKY
Procedure, shortened: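 Kinase reaction run at room temperature for at least 30 min: 2 nM TYK2 with 1 μM ATP, or 1 nM JAK2 with 100 μM ATP, each with 1 μM biotin-TK substrate. Phosphorylation detected by HTRF (60 min antibody/XL665) and evaluated from emission ratios.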

[4] = target: T4, wt human LRRK2, catalytic site (Homo sapiens, UniProt Q5S007); assay: TR-FRET LanthaScreen Eu Kinase Binding Assay, LRRK2 wt; conditions: one range stated for wt and G2019, read-out: IC50, Activity Toward LRRK2(Wt)
T4 construct: 5 nM wt human LRRK2, catalytic site; purchased ThermoFisher
T4 sequence (Q5S007 970-2527 limits assumed): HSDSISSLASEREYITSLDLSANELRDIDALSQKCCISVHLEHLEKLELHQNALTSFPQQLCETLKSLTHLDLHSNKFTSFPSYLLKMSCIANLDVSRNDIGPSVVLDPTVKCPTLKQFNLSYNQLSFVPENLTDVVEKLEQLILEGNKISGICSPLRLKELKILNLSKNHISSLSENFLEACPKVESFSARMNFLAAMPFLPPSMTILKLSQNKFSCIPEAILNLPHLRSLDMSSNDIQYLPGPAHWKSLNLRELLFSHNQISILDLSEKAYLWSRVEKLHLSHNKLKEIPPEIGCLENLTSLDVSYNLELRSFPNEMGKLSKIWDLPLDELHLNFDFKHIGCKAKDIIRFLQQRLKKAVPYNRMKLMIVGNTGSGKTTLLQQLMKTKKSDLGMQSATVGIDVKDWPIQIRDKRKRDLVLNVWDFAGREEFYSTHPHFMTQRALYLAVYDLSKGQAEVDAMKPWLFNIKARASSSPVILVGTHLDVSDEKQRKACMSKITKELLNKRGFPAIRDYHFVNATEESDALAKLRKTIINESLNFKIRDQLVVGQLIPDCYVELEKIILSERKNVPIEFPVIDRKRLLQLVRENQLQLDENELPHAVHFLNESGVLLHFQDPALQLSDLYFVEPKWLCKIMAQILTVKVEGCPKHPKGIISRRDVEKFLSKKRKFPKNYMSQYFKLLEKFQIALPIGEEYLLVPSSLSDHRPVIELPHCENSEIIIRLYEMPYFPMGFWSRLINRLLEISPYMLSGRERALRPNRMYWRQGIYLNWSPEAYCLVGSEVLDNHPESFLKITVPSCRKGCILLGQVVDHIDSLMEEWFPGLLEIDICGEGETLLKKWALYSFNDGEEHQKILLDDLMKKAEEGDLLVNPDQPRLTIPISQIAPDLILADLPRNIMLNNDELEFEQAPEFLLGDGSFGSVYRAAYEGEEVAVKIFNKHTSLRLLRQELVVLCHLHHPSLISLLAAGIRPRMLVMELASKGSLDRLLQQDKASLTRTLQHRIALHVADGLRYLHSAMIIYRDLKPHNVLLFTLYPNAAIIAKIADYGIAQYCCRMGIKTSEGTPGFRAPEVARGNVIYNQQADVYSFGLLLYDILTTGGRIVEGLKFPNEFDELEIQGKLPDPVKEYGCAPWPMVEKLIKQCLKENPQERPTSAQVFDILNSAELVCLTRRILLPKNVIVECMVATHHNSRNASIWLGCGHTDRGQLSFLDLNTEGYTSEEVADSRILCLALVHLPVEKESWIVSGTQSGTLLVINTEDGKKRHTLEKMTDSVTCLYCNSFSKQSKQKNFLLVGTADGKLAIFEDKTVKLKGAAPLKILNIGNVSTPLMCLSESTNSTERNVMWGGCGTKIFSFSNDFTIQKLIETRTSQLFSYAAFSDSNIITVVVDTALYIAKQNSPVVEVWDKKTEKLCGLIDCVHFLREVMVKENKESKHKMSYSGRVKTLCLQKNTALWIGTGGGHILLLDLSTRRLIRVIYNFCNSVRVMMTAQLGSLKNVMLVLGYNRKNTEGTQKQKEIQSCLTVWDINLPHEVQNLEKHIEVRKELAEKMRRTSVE
Description: as §1, §2

T1 sequence (Q5S007 970-2527 G2019S limits assumed): as the sequence (Q5S007 970-2527 limits assumed) above, with G1050S counted along it

| Structure (SMILES) | IC50 [1] | IC50 [2] | IC50 [3] | IC50 [4] |
| --- | --- | --- | --- | --- |
| CN=S1(=O)CCN(C(=O)c2ccc(Nc3cn(-c4c(Cl)cccc4Cl)nc3C(N)=O)cc2)CC1 [compound 466, 1-(2,6-dichlorophenyl)-4-((4-(1-(methylimino)-1-oxidothiomorpholine-4-carbonyl)phenyl)amino)-1H-pyrazole-3-carboxamide] | 100 to 1000 nM | 10 to 100 nM | < 10 nM | 100 to 1000 nM |
| CCNC(=O)c1ccc(Nc2cn(-c3c(F)cccc3Cl)nc2C(N)=O)cc1 [compound 40, 1-(2-chloro-6-fluorophenyl)-4-((4-(ethylcarbamoyl)phenyl)amino)-1H-pyrazole-3-carboxamide] | 100 to 1000 nM | 10 to 100 nM | 10 to 100 nM | 100 to 1000 nM |
| CN1CCN(S(=O)(=O)c2ccc(Nc3cn(-c4c(Cl)cccc4Cl)nc3C(N)=O)cc2)CC1 [compound 85, 1-(2,6-dichlorophenyl)-4-((4-((4-methylpiperazin-1-yl)sulfonyl)phenyl)amino)-1H-pyrazole-3-carboxamide] | 100 to 1000 nM | 10 to 100 nM | < 10 nM | 100 to 1000 nM |
| Cc1ccnc(Nc2cn(-c3c(F)cccc3F)nc2C(N)=O)c1 [compound 10, 1-(2,6-difluorophenyl)-4-((4-methylpyridin-2-yl)amino)-1H-pyrazole-3-carboxamide] | 100 to 1000 nM |  | 100 to 1000 nM | 100 to 1000 nM |
| N#Cc1cccc(F)c1-n1cc(Nc2ccc(C(=O)N3CC[C@@H](F)C3)cc2)c(C(N)=O)n1 [compound 450, (R)-1-(2-cyano-6-fluorophenyl)-4-((4-(3-fluoropyrrolidine-1-carbonyl)phenyl)amino)-1H-pyrazole-3-carboxamide] | 100 to 1000 nM | 10 to 100 nM | < 10 nM | 100 to 1000 nM |
| NC(=O)c1nn(-c2c(Cl)cccc2Cl)cc1Nc1ccc(C(=O)N2CC3(CCC3)C2)cc1 [compound 46, 4-((4-(2-azaspiro[3.3]heptane-2-carbonyl)phenyl)amino)-1-(2,6-dichlorophenyl)-1H-pyrazole-3-carboxamide] | 100 to 1000 nM | < 10 nM | < 10 nM | 100 to 1000 nM |
| NC(=O)c1nn(-c2c(Cl)cccc2Cl)cc1Nc1ccc(C(=O)N2CCN(C3CC3)CC2)cc1 [compound 84, 4-((4-(4-cyclopropylpiperazine-1-carbonyl)phenyl)amino)-1-(2,6-dichlorophenyl)-1H-pyrazole-3-carboxamide] | 100 to 1000 nM | 10 to 100 nM | < 10 nM | 100 to 1000 nM |
| CC(C)(C)NC(=O)c1ccc(Nc2cn(-c3c(F)cccc3F)nc2C(N)=O)cn1 [compound 23, N-(tert-butyl)-5-((3-carbamoyl-1-(2,6-difluorophenyl)-1H-pyrazol-4-yl)amino)picolinamide] | 100 to 1000 nM |  | 100 to 1000 nM | 100 to 1000 nM |
| Cc1cncc2nnc(-c3ccc(Nc4nn(-c5c(Cl)cccc5Cl)nc4C(N)=O)cn3)n12 [compound 161, 2-(2,6-dichlorophenyl)-5-((6-(5-methyl-[1,2,4]triazolo[4,3-a]pyrazin-3-yl)pyridin-3-yl)amino)-2H-1,2,3-triazole-4-carboxamide] |  | 10 to 100 nM | 10 to 100 nM |  |
| NC(=O)c1nn(-c2c(Cl)cccc2Cl)cc1Nc1ccc(N2CCCCC2=O)nc1 [compound 384, 1-(2,6-dichlorophenyl)-4-((6-(2-oxopiperidin-1-yl)pyridin-3-yl)amino)-1H-pyrazole-3-carboxamide] |  | 100 to 1000 nM | 100 to 1000 nM |  |
| Cc1ncnn1-c1ccc(Nc2nn(-c3c(Cl)cccc3Cl)nc2C(N)=O)nc1 [compound 156, 2-(2,6-dichlorophenyl)-5-((5-(5-methyl-1H-1,2,4-triazol-1-yl)pyridin-2-yl)amino)-2H-1,2,3-triazole-4-carboxamide] |  | 10 to 100 nM | 10 to 100 nM |  |

Further lines, results first:

| IC50 [1] | IC50 [2] | IC50 [3] | IC50 [4] | Structure (SMILES) |
| --- | --- | --- | --- | --- |
| 100 to 1000 nM | 10 to 100 nM | 10 to 100 nM | 100 to 1000 nM | NC(=O)c1nn(-c2c(Cl)cccc2Cl)cc1Nc1ccc(-c2nnc3cncc(C(F)(F)F)n23)nc1 [compound 472, 1-(2,6-dichlorophenyl)-4-((6-(5-(trifluoromethyl)-[1,2,4]triazolo[4,3-a]pyrazin-3-yl)pyridin-3-yl)amino)-1H-pyrazole-3-carboxamide] |
| 100 to 1000 nM | 100 to 1000 nM | 10 to 100 nM | 100 to 1000 nM | NC(=O)c1nn(-c2c(Cl)cccc2Cl)cc1Nc1ccc(-n2ncc3c2CCOC3)cc1 [compound 70, 1-(2,6-dichlorophenyl)-4-((4-(6,7-dihydropyrano[4,3-c]pyrazol-1(4H)-yl)phenyl)amino)-1H-pyrazole-3-carboxamide] |
| 100 to 1000 nM | 100 to 1000 nM | < 10 nM | 100 to 1000 nM | COCc1nc(C(F)(F)F)nn1-c1ccc(Nc2cn(-c3c(F)cccc3F)nc2C(N)=O)cc1 [compound 299, 1-(2,6-difluorophenyl)-4-((4-(5-(methoxymethyl)-3-(trifluoromethyl)-1H-1,2,4-triazol-1-yl)phenyl)amino)-1H-pyrazole-3-carboxamide] |
| 100 to 1000 nM | 100 to 1000 nM | < 10 nM | 100 to 1000 nM | CCc1nc(C(F)(F)F)nn1-c1ccc(Nc2cn(-c3c(F)cccc3Cl)nc2C(N)=O)cc1 [compound 283, 1-(2-chloro-6-fluorophenyl)-4-((4-(5-ethyl-3-(trifluoromethyl)-1H-1,2,4-triazol-1-yl)phenyl)amino)-1H-pyrazole-3-carboxamide] |
| 100 to 1000 nM |  | 100 to 1000 nM | 100 to 1000 nM | COc1ccccc1-c1ccc(Nc2cn(-c3c(Cl)cccc3Cl)nc2C(N)=O)cn1 [compound 344, 1-(2,6-dichlorophenyl)-4-((6-(2-methoxyphenyl)pyridin-3-yl)amino)-1H-pyrazole-3-carboxamide] |
| 100 to 1000 nM | 10 to 100 nM | 10 to 100 nM | 100 to 1000 nM | CCNC(=O)c1ccc(Nc2cn(-c3c(Cl)cccc3Cl)nc2C(N)=O)cc1 [compound 34, 1-(2,6-dichlorophenyl)-4-((4-(ethylcarbamoyl)phenyl)amino)-1H-pyrazole-3-carboxamide] |
|  | 100 to 1000 nM | 10 to 100 nM |  | CC(C)c1ncnn1-c1ccc(Nc2cn(-c3c(Cl)cccc3Cl)nc2C(N)=O)cc1 [compound 341, 1-(2,6-dichlorophenyl)-4-((4-(5-isopropyl-1H-1,2,4-triazol-1-yl)phenyl)amino)-1H-pyrazole-3-carboxamide] |
|  | 100 to 1000 nM | 10 to 100 nM |  | NC(=O)c1nn(-c2c(F)cccc2Cl)cc1Nc1ccc(-n2cc3c(n2)CCOC3)cc1 [compound 209, 1-(2-chloro-6-fluorophenyl)-4-((4-(6,7-dihydropyrano[4,3-c]pyrazol-2(4H)-yl)phenyl)amino)-1H-pyrazole-3-carboxamide] |
|  | 100 to 1000 nM | 10 to 100 nM |  | Cc1cnncc1-c1ccc(Nc2cn(-c3c(Cl)cccc3Cl)nc2C(N)=O)cc1 [compound 340, 1-(2,6-dichlorophenyl)-4-((4-(5-methylpyridazin-4-yl)phenyl)amino)-1H-pyrazole-3-carboxamide] |
|  | 100 to 1000 nM | 10 to 100 nM |  | COCc1ncnn1-c1ccc(Nc2cn(-c3c(Cl)cccc3Cl)nc2C(N)=O)cc1 [compound 300, 1-(2,6-dichlorophenyl)-4-((4-(5-(methoxymethyl)-1H-1,2,4-triazol-1-yl)phenyl)amino)-1H-pyrazole-3-carboxamide] |
|  | 10 to 100 nM | < 10 nM |  | NC(=O)c1nn(-c2c(Cl)cccc2Cl)cc1Nc1ccc(C(=O)N2CC(F)(F)C(F)(F)C2)cc1 [compound 254, 1-(2,6-dichlorophenyl)-4-((4-(3,3,4,4-tetrafluoropyrrolidine-1-carbonyl)phenyl)amino)-1H-pyrazole-3-carboxamide] |
|  | 10 to 100 nM | < 10 nM |  | Cc1nc(C(F)(F)F)nn1-c1ccc(Nc2cn(-c3c(Cl)cccc3Cl)nc2C(N)=O)cc1 [compound 275, 1-(2,6-dichlorophenyl)-4-((4-(5-methyl-3-(trifluoromethyl)-1H-1,2,4-triazol-1-yl)phenyl)amino)-1H-pyrazole-3-carboxamide] |
